Measurements from patent publication US20070072222A1, “FABP4 as biomarker for toxic effect” (priority 2005, published 2007).

Experiments:
[1] = system: rat FABP4 (SEQ. ID NO: 2); assay: FABP4 gene expression in rat liver (Affymetrix microarray RG U34A); format: in vivo, Wistar rats; conditions: for FABP4 expression relative to time matched vehicle control, Affymetrix result (Fold change): rat liver
Description: (§1) The expression levels of FABP4 of the mice (SEQ. ID NO: 3) were measured using Affymetrix microarrays (MEA 230 plus, probe sets: 1417023_a_at, 1424155_at, 1425809_at, 1451263_a_at) or Applied Biosystems Assays on Demand (assay ID: Mm00445880_ml). The expression levels of FABP4 of the rat (SEQ. ID NO: 2) were measured using Affymetrix microarrays (RG U34A, probe set: rc_AI169612_at) or Applied Biosystems Assays on Demand (assay ID: Rn00670361_ml). The expression levels of FABP4 of the monkeys were not measured.
(§2) Wistar rats (RCC Ltd, Füllinsdorf): • treatment with INDOMETHACIN (1-(4-Chlorobenzoyl)-5-methoxy-2-methyl-3-indoleacetic acid, Sigma I7378), single dose p.o. (orally); doses were 0, 2, 10 and 20 mg/kg • Treatment with INDOMETHACIN (1-(4-Chlorobenzoyl)-5-methoxy-2-methyl-3-indoleacetic acid, Sigma I7378) for 7 days; doses were 0, 2, and 5 mg/kg/day INDOMETHACIN was dissolved in corn oil. Treated animals were dosed orally (p.o.). The expression levels of FABP4 of the rat (SEQ. ID NO: 2) were measured using Affymetrix microarrays (RG U34A, probe sets: rc_AI169612_at) or Applied Biosystems Assays on Demand (assay ID: Rn00670361_ml).

[2] = system: rat FABP4 (SEQ. ID NO: 2); assay: FABP4 mRNA expression in rat liver by PCR (Applied Biosystems Assays on Demand); format: in vivo, Wistar rats
Description: as §1, §2

livers = assay: Liver histopathology and clinical biochemistry in indomethacin treated rats; format: in vivo, Wistar rats
Description: as §2

mice = assay: Oral repeat-dose toxicity study in mice; format: in vivo, mouse (CD-1, C57BL6)
Description: (§3) CD-1 mice (Charles River Laboratories, UK): • treatment with 3-{1-[2-(2-CHLORO-PHENYL)-5-METHYL-OXAZOL-4-YLMETHYL]-1H-INDOL-5-YL}-2-ETHOXY-PROPIONIC ACID for 1 day; doses were 0, 0.2 and 3 mg/kg • treatment with 3-{1-[2-(2-CHLORO-PHENYL)-5-METHYL-OXAZOL-4-YLMETHYL]-1H-INDOL-5-YL}-2-ETHOXY-PROPIONIC ACID for 10 days; doses were 0, 0.2 and 3 mg/kg • treatment with 3-{1-[2-(2-CHLORO-PHENYL)-5-METHYL-OXAZOL-4-YLMETHYL]-1H-INDOL-5-YL}-2-ETHOXY-PROPIONIC ACID for 14 days; doses were 0, 0.6 and 15 mg/kg
(§4) C57BL6 mice (RCC Ltd, Füllinsdorf): • treatment with 3-{1-[2-(2-CHLORO-PHENYL)-5-METHYL-OXAZOL-4-YLMETHYL]-1H-INDOL-5-YL}-2-ETHOXY-PROPIONIC ACID for 1 day; doses were 0, 0.2 and 3 mg/kg • treatment with 3-{1-[2-(2-CHLORO-PHENYL)-5-METHYL-OXAZOL-4-YLMETHYL]-1H-INDOL-5-YL}-2-ETHOXY-PROPIONIC ACID for 10 days; doses were 0, 0.2 and 3 mg/kg
(§5) Cynomolgus Monkey (macaca fascicularis): • treatment with 3-{1-[2-(2-CHLORO-PHENYL)-5-METHYL-OXAZOL-4-YLMETHYL]-1H-INDOL-5-YL}-2-ETHOXY-PROPIONIC ACID for 28 days; doses were 0, 0.015, 0.09 and 0.31 mg/kg • Treatment with 3-{1-[2-(2-CHLORO-PHENYL)-5-METHYL-OXAZOL-4-YLMETHYL]-1H-INDOL-5-YL}-2-ETHOXY-PROPIONIC ACID for 16 weeks; doses were […], 0.1, 0.3 and 1 mg/kg 3-{1-[2-(2-CHLORO-PHENYL)-5-METHYL-OXAZOL-4-YLMETHYL]-1H-INDOL-5-YL}-2-ETHOXY-PROPIONIC ACID was dissolved in 20% propylene glycol/phosphate buffer, pH8. Treated animals were dosed orally (p.o.).

[3] = system: rat tissue (liver, heart, skeletal muscle, Brown adipose tissue); assay: Oral repeat-dose toxicity study in rats; format: in vivo, Wistar rats; conditions: at similar exposure levels as in mice
Description: Wistar rats (RCC Ltd, Füllinsdorf): • treatment with 3-{1-[2-(2-CHLORO-PHENYL)-5-METHYL-OXAZOL-4-YLMETHYL]-1H-INDOL-5-YL}-2-ETHOXY-PROPIONIC ACID for 14 days; doses were 0, 0.3 and 1.2 mg/kg • Treatment with 3-{1-[2-(2-CHLORO-PHENYL)-5-METHYL-OXAZOL-4-YLMETHYL]-1H-INDOL-5-YL}-2-ETHOXY-PROPIONIC ACID for 28 days; doses were 0, 0.1, 0.5 and 2.5 mg/kg
as §5

[4] = system: monkey tissue (liver, heart, skeletal muscle, Brown adipose tissue); assay: Oral repeat-dose toxicity study in monkeys; format: in vivo, Cynomolgus Monkey (macaca fascicularis); conditions: at similar exposure levels as in mice
Description: as §5

[5] = system: mouse FABP4 (SEQ. ID NO: 3); assay: FABP4 gene expression in mouse liver (Affymetrix microarray MEA 230 plus); format: in vivo, mouse (CD1, C57Bl/6); conditions: mice, after p.o. administration
Description: as §3, §4, §1

[6] = single dose 20 mg/kg, necropsy 24 hours

Compound: lipopolysaccharide
- Expression of FABP4 in liver ([1]; rats, after administration): an induction of the expression of FABP4 was also found

Compound: COc1ccc2c(c1)c(CC(=O)O)c(C)n2C(=O)c1ccc(Cl)cc1 [indomethacin, 1-(4-Chlorobenzoyl)-5-methoxy-2-methyl-3-indoleacetic acid]
- Expression of FABP4 in liver ([1]; Wistar, rat, in vivo): an induction of the expression of FABP4 was also found
- FABP4 expression relative to time matched vehicle control, Affymetrix result (Fold change) ([1]; 2 mg/kg/day for 7 days): 1 Fold change
- FABP4 expression relative to time matched vehicle control, Affymetrix result (Fold change) ([1]; 5 mg/kg/day for 7 days): 79.59 Fold change
- FABP4 expression relative to time matched vehicle control, Affymetrix result (Fold change) ([1]; single dose 2 mg/kg, necropsy 6 hours): 1 Fold change
- FABP4 expression relative to time matched vehicle control, Affymetrix result (Fold change) ([1]; single dose 2 mg/kg, necropsy 24 hours): 1 Fold change
- FABP4 expression relative to time matched vehicle control, Affymetrix result (Fold change) ([1]; single dose 10 mg/kg, necropsy 6 hours): 1 Fold change
- FABP4 expression relative to time matched vehicle control, Affymetrix result (Fold change) ([1]; single dose 10 mg/kg, necropsy 24 hours): 4.13 Fold change
- FABP4 expression relative to time matched vehicle control, Affymetrix result (Fold change) ([1]; single dose 20 mg/kg, necropsy 6 hours): 1 Fold change
- FABP4 expression relative to time matched vehicle control, Affymetrix result (Fold change) [1, 6]: 8.41 Fold change
- Expression of fatty acid binding protein 4 in liver (Affymetrix gene arrays) ([1]; rats, 24 hours after single dose 10 or 20 mg/kg, and 7 consecutive days 5 mg/kg/day): strong induction
- FABP4 expression relative to time matched vehicle control, PCR result (Fold change) ([2]; 5 mg/kg/day for 7 days): 26.92 Fold change
- FABP4 expression relative to time matched vehicle control, PCR result (Fold change) [2, 6]: 13.68 Fold change
- Clinical biochemistry parameters (livers; especially 10 and 20 mg/kg single dose and 5 mg/kg/day repeated treatment): changes of different clinical biochemistry parameters indicative of liver changes
- Liver histopathology (livers; p.o., dose dependent): Slight histopathological alterations (hepatocellular hypertrophy)
- Hepatocellular glycogen deposition (livers; single administration of 10 or 20 mg/kg or 5 mg/kg/day for 7 consecutive days): Decreased hepatocellular glycogen deposition

Compound: ClC(Cl)(Cl)Cl [carbon tetrachloride]
- Expression of FABP4 in liver ([1]; rats, after administration): an induction of the expression of FABP4 was also found

Compound: CCOC(Cc1ccc2c(ccn2Cc2nc(-c3ccccc3Cl)oc2C)c1)C(=O)O (stereo not drawn) [3-{1-[2-(2-CHLORO-PHENYL)-5-METHYL-OXAZOL-4-YLMETHYL]-1H-INDOL-5-YL}-2-ETHOXY-PROPIONIC ACID]
- Dose at which mortality occurred (mice; mice, p.o.): ≥ 0.6 mg/kg/day
- Exposure at which dose-dependent severe toxicity was found (mice; mouse, in vivo, po): ≥ 50 × anticipated human exposure
- Findings in other tissues (mice; mouse, in vivo, po): degeneration of heart and skeletal muscle, and brown adipose tissue
- Toxicity in tissue (liver, heart, skeletal muscle, brown adipose tissue) [3]: not observed
- Toxicity in tissue (liver, heart, skeletal muscle, brown adipose tissue) [4]: not observed
- Expression of fatty acid binding protein 4 in liver [5]: strong induction
- Expression of FABP4 in liver ([1]; rat, in vivo): not induced
